Test results reported in ChEMBL document CHEMBL1649582, “Novel expression vector for secretion of cecropin AD in Bacillus subtilis with enhanced antimicrobial activity” (Antimicrob Agents Chemother, 2009).
≈ marks a conversion by molar mass, not a printed value. Calls of active or inactive are those of the source. The calls are words filed in the database; no cut-off is given here. Where a SMILES comes first, the peptide text is derived from it.

Key:
[1] = Toxicity in human RBCs assessed as induction hemolysis at 0.01 to 200 ug/mL; type: cell-based; conditions: erythrocyte
[2] = tested on: Salmonella enteritidis; test: Antimicrobial activity against Salmonella enterica serovar Enteritidis IVDC C79-52 by microdilution assay; type: functional, Salmonella enterica subsp. enterica serovar Enteritidis
[3] = tested on: Staphylococcus aureus; test: Antimicrobial activity against Staphylococcus aureus IVDC C56005 assessed as microbial growth inhibition at 55 degC for 20 mins; type: functional, organism-based
[4] = tested on: Staphylococcus aureus; test: Antimicrobial activity against Staphylococcus aureus IVDC C56005 assessed as microbial growth inhibition at pH <4.0; type: functional, organism-based
[5] = tested on: Staphylococcus aureus; test: Antimicrobial activity against Staphylococcus aureus IVDC C56005 assessed as microbial growth inhibition in presence of trypsin; type: functional, organism-based
[6] = tested on: Staphylococcus aureus; test: Antimicrobial activity against Staphylococcus aureus IVDC C56005 by microdilution assay; type: functional
[7] = tested on: Escherichia coli; test: Antimicrobial activity against Escherichia coli K12D31 by microdilution assay; type: functional
[8] = tested on: Staphylococcus aureus; test: Antimicrobial activity against Staphylococcus aureus IVDC C56005 assessed as microbial growth inhibition in presence of pepsin; type: functional, organism-based
[9] = tested on: Salmonella typhimurium; test: Antimicrobial activity against Salmonella enterica serovar Typhimurium IVDC C77-31 by microdilution assay; type: functional, Salmonella enterica subsp. enterica serovar Typhimurium
[10] = tested on: Staphylococcus aureus; test: Antimicrobial activity against Staphylococcus aureus IVDC C56005 assessed as microbial growth inhibition at pH 4 to 9; type: functional, organism-based
[11] = tested on: Escherichia coli; test: Antimicrobial activity against Escherichia coli K99 by microdilution assay; type: functional
[12] = tested on: Enterococcus faecalis; test: Antimicrobial activity against Streptococcus faecalis IVDC C55614 by microdilution assay; type: functional
[13] = tested on: Staphylococcus aureus; test: Antimicrobial activity against Staphylococcus aureus IVDC C56005 assessed as microbial growth inhibition at >85 degC for 20 mins; type: functional, organism-based
[14] = tested on: Escherichia coli; test: Antimicrobial activity against Escherichia coli K88 by microdilution assay; type: functional
[15] = tested on: Staphylococcus aureus; test: Antimicrobial activity against Staphylococcus aureus IVDC C56005 assessed as microbial growth inhibition in presence of proteinase K; type: functional, organism-based

- MIC [2]: 16 µg/mL (≈ 4.05 µM)
- MIC [6]: 0.2 µg/mL (≈ 0.0506 µM)
- MIC [7]: 1.8 µg/mL (≈ 0.456 µM)
- MIC [9]: 8 µg/mL (≈ 2.02 µM)
- MIC [11]: 2 µg/mL (≈ 0.506 µM)
- MIC [12]: 24 µg/mL (≈ 6.07 µM)
- MIC [14]: 2 µg/mL (≈ 0.506 µM)
Structure (SMILES): CC[C@H](C)[C@H](NC(=O)[C@H](CCCCN)NC(=O)[C@H](CCCCN)NC(=O)[C@H](Cc1ccccc1)NC(=O)[C@H](CC(C)C)NC(=O)[C@H](CCCCN)NC(=O)[C@H](Cc1c[nH]c2ccccc12)NC(=O)[C@@H](N)CCCCN)C(=O)N[C@@H](CCC(=O)O)C(=O)N[C@@H](CCCCN)C(=O)N[C@H](C(=O)NCC(=O)N[C@@H](CCC(N)=O)C(=O)N[C@@H](CCCNC(=N)N)C(=O)N[C@H](C(=O)N[C@@H](CCCNC(=N)N)C(=O)N[C@@H](CC(=O)O)C(=O)N[C@@H](C)C(=O)N[C@H](C(=O)N[C@H](C(=O)N[C@@H](CO)C(=O)N[C@@H](C)C(=O)NCC(=O)N1CCC[C@H]1C(=O)N[C@@H](C)C(=O)N[C@H](C(=O)N[C@@H](C)C(=O)N[C@H](C(=O)N[C@H](C(=O)N[C@@H](C)C(=O)N[C@@H](CCC(N)=O)C(=O)N[C@@H](C)C(=O)N[C@H](C(=O)N[C@@H](C)C(=O)N[C@@H](CC(C)C)C(=O)N[C@@H](C)C(=O)N[C@@H](CCCCN)C(=O)O)[C@@H](C)O)C(C)C)[C@@H](C)O)C(C)C)[C@@H](C)CC)C(C)C)C(C)C)C(C)C [CECROPIN AD] (H-KWKLFKKIEKVGQRVRDAVISAGPAVATVAQATALAK-OH)
- Activity [1]: Non-toxic
- growth inhibition (GI) [3]: Active
- growth inhibition (GI) [4]: inactive
- growth inhibition (GI) [5]: Active
- growth inhibition (GI) [8]: Active
- growth inhibition (GI) [10]: Active
- growth inhibition (GI) [13]: inactive
- growth inhibition (GI) [15]: Active
